Consider 9 compounds from US20060089378A1 (priority 2004, published 2006).

The target of experiment [1] is T1, Cannabinoid CB1 Receptor (Homo sapiens, UniProt P21554).
T1 construct: expressed in transfected cells
The experiment in a line: Binding assay for CB1 agonists or inverse agonists (radioligand competition, membranes of transfected SK-N-MC cells). Background: Displacement assays read how much labelled ligand stays bound in the presence of the test substance.

The target in experiment [2] is T2, Cannabinoid CB2 Receptor (Homo sapiens, UniProt P34972).
T2 construct: expressed in transfected cells
T2 sequence (P34972 whole entry): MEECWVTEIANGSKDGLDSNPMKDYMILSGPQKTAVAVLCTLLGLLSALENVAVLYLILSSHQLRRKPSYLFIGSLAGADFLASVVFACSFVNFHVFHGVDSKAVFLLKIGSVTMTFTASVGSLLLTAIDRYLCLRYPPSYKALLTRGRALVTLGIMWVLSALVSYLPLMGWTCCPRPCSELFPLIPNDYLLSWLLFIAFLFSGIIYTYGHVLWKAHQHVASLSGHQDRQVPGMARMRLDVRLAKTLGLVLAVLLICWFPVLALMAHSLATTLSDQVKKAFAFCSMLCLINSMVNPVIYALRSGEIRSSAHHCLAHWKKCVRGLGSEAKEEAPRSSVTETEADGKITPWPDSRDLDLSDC
Nature of the experiment: Binding assay for CB2 agonists or inverse agonists (radioligand competition, membranes of transfected SK-N-MC cells). Particulars: for inhibition at 0.2 µM: read-out: Cannabinoid CB2 Receptor Binding percent inhibition.

Experiment [3] deals with CB1 receptor (human) (Homo sapiens, UniProt P21554). Nature of the experiment: cell-based. Particulars: for CB1 Receptor Functional Activity (change in functional activity, CRE β-gal): one compound concentration, β-galactosidase activity relative to vehicle treated cells.
CB1 receptor (human), sequence (P21554 whole entry): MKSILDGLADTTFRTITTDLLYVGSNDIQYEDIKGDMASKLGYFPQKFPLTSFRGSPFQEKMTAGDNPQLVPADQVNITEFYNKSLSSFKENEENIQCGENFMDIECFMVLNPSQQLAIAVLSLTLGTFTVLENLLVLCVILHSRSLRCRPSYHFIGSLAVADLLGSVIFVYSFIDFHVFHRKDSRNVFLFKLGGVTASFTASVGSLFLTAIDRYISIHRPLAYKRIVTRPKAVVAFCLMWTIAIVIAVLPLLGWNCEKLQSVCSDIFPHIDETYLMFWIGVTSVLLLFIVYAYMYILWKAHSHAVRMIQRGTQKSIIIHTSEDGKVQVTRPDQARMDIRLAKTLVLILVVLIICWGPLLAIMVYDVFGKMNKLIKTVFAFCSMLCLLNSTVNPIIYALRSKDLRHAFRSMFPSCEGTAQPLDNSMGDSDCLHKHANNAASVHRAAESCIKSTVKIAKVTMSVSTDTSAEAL

SMILES strings stand for the structures. Where two headings read alike, the source gives them in different places.

T1 sequence (P21554 whole entry): as above

The IC50 is the point on the concentration scale where inhibition reaches its midpoint. By inhibition is commonly meant how much of the control response was suppressed. The term EC50 denotes the concentration at which the effect is half-maximal. Compound `O=C(NN1CC2CCCC2C1)c1nn(-c2ccc(Cl)cc2Cl)c2c1CNC/C2=C\c1ccc(F)cc1` (stereo not drawn) [Cpd 90, (7E)-1-(2,4-dichloro-phenyl)-7-(4-fluoro-benzylidene)-4,5,6,7-tetrahydro-1H-pyrazolo[4,3-c]pyridine-3-carboxylic acid (hexahydro-cyclopenta[c]pyrrol-2-yl)-amide] yielded an IC50 in experiment [1] of 30 nM. For the same compound, the inhibition at 0.2 µM in experiment [2] is 15%. Moreover, a half-maximal effect in experiment [3] (EC50) was put at 8 nM.

`CC(C)(C)OC(=O)N1CCc2c(c(C(=O)NC3C4(C)CCC(C4)C3(C)C)nn2-c2ccccc2)C1` (stereo not drawn) [Cpd 111, 1-phenyl-3-(1,3,3-trimethyl-bicyclo[2.2.1]hept-2-ylcarbamoyl)-1,4,6,7-tetrahydro-pyrazolo[4,3-c]pyridine-5-carboxylic acid tert-butyl ester]: in experiment [1] (read-out: Cannabinoid CB1 Receptor Binding percent inhibition), the inhibition at 0.2 µM came out at 27%. In experiment [2], this compound registered an IC50 of 100 nM. The “CB1 Receptor Functional Activity (change in functional activity, CRE β-gal)” value in experiment [3] turned out to be 24%.

On to `COC(=O)N1C/C(=C\c2ccc(OC)cc2)c2c(c(C(=O)NN3CC4CCCC4C3)nn2-c2ccc(Cl)cc2Cl)C1` (stereo not drawn) [Cpd 100, (7E)-1-(2,4-dichloro-phenyl)-3-(hexahydro-cyclopenta[c]pyrrol-2-ylcarbamoyl)-7-(4-methoxy-benzylidene)-1,4,6,7-tetrahydro-pyrazolo[4,3-c]pyridine-5-carboxylic acid methyl ester], for which, in experiment [1], the IC50 amounted to 7 nM. For the same compound, the inhibition at 0.2 µM in experiment [2] was found to be 63%. In addition, the response in experiment [3] was half-maximal at 1 nM (EC50).

On to `C[C@@H](NC(=O)c1nn(-c2ccc(Cl)cc2Cl)c2c1CN(C(=O)OC(C)(C)C)C/C2=C\c1ccc(F)cc1)c1ccccn1` [Cpd 138, (7E)-1-(2,4-dichloro-phenyl)-7-(4-fluoro-benzylidene)-3-[(1R)-1-pyridin-2-yl-ethylcarbamoyl]-1,4,6,7-tetrahydro-pyrazolo[4,3-c]pyridine-5-carboxylic acid tert-butyl ester], for which the IC50 in experiment [1] worked out at 30 nM. Further, in experiment [2], the inhibition at 0.2 µM is 21%. In addition, it took 9 nM to reach a half-maximal effect in experiment [3] (EC50).

Consider `COC(=O)N1CCc2c(c(C(=O)NC3C4CC5CC(C4)CC3C5)nn2C2CCCCC2)C1` (stereo not drawn) [Cpd 131, 3-(adamantan-2-ylcarbamoyl)-1-cyclohexyl-1,4,6,7-tetrahydro-pyrazolo[4,3-c]pyridine-5-carboxylic acid methyl ester], for which the IC50 was 2700 nM in experiment [1] (human CB1, SK-N-MC cell membranes, calculated by linear regression from percent inhibition at various concentrations, read-out: Cannabinoid CB1 Receptor Binding IC50) and 200 nM in experiment [2] (human CB2, SK-N-MC cell membranes, calculated by linear regression from percent inhibition at various concentrations, read-out: Cannabinoid CB2 Receptor Binding IC50). Further, the “CB1 Receptor Functional Activity (change in functional activity, CRE β-gal)” value in experiment [3] was −49%.

In experiment [1], `COC(=O)N1C/C(=C\c2ccc(F)cc2)c2c(c(C(=O)N[C@@H](C)C3CCCCC3)nn2-c2ccc(Cl)cc2Cl)C1` [Cpd 7, (7E)-3-[(1S)-1-cyclohexyl-ethylcarbamoyl]-1-(2,4-dichloro-phenyl)-7-(4-fluoro-benzylidene)-1,4,6,7-tetrahydro-pyrazolo[4,3-c]pyridine-5-carboxylic acid methyl ester] had an IC50 of 40 nM. Besides, in experiment [2] (test concentration of 0.2 μM, compounds without an IC50 binding value), the inhibition at 0.2 µM amounted to 13%. In experiment [3], this compound showed an EC50 of 10 nM.

As to `CC12CCC(C1)C(C)(C)[C@H]2NC(=O)c1nn(Cc2ccccc2)c2c1CNCC2` (stereo partly drawn) [Cpd 105, 1-benzyl-4,5,6,7-tetrahydro-1H-pyrazolo[4,3-c]pyridine-3-carboxylic acid [(2S)-1,3,3-trimethyl-bicyclo[2.2.1]hept-2-yl]-amide], the IC50 in experiment [1] amounted to 200 nM; in experiment [2], 500 nM. Further, the “CB1 Receptor Functional Activity (change in functional activity, CRE β-gal)” value in experiment [3] is recorded as −18%.

In experiment [1], `Cc1ccc(S(=O)(=O)N2C/C(=C\c3ccc(F)cc3)c3c(c(C(=O)N[C@H](C)c4ccccc4)nn3-c3ccc(Cl)cc3Cl)C2)cc1` [Cpd 18] showed an IC50 of 10 nM. Also, the inhibition at 0.2 µM in experiment [2] was determined as 48%. For the same compound, the EC50 in experiment [3] was 80 nM.

In turn, `COC(=O)N1C/C(=C\c2ccc(OC)cc2)c2c(c(C(=O)N[C@H](C)c3ccccn3)nn2-c2ccc(Cl)cc2Cl)C1` [Cpd 96, (7E)-1-(2,4-dichloro-phenyl)-7-(4-methoxy-benzylidene)-3-[(1R)-1-pyridin-2-yl-ethylcarbamoyl]-1,4,6,7-tetrahydro-pyrazolo[4,3-c]pyridine-5-carboxylic acid methyl ester] registered an IC50 in experiment [1] of 3 nM. Also, the inhibition at 0.2 µM in experiment [2] stood at 56%. In experiment [3], this compound registered an EC50 of 1 nM.
